# Assay results taken from paper PMC5817008 (Analytical biochemistry, 2017).
# Like-named read-outs stand apart in the source and are kept apart here.
# How the values were obtained:
# [1] = literature search; cited from earlier work
# [2] = tested on: F. tularensis IspD (FtIspD); type: biochemical, Francisella tularensis
# [3] = tested on: Francisella tularensis subsp. novicida Utah 112; experiment: microbe, parasite or virus in culture; type: cell-based; details: for EC50: read-out: EC50, growth inhibition
# [4] = target: Y. pestis IspC (YpIspC) (Yersinia pestis, UniProt Q8ZH62); experiment: biochemical; details: for % Residual Activity: 100 µM; for remaining activity at 100 µM: read-out: % Residual Activity
# Chain of Y. pestis IspC (YpIspC) (Q8ZH62 whole entry, looked up): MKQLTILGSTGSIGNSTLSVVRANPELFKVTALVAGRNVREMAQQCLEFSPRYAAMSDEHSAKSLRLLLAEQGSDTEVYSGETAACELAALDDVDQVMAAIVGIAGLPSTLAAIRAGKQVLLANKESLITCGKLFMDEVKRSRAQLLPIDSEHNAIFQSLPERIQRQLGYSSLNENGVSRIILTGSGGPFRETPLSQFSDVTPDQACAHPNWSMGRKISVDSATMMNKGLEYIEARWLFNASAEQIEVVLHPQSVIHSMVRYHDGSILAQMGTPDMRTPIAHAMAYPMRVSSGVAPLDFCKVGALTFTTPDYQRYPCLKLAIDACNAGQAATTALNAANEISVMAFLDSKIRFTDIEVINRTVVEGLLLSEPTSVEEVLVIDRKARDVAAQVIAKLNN
# [5] = tested on: Yersinia pestis subsp. A1122; experiment: microbe, parasite or virus in culture; type: cell-based
# [6] = target: T1, E.coli IspD (EcIspD) (Escherichia coli, UniProt Q46893); experiment: Secondary screen, cuvette-based assay with EcIspD; type: biochemical
# T1 sequence (Q46893 1-236): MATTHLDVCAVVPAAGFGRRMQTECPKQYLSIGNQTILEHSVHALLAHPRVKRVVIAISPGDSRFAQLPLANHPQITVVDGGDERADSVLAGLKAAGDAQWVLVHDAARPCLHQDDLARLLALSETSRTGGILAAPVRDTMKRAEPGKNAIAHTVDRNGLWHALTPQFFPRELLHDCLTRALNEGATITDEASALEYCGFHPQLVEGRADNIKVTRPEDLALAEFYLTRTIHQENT
# [7] = target: T2, YpIspC (Yersinia pestis, UniProt Q8ZH62); type: biochemical
# T2 sequence (Q8ZH62 whole entry, looked up): as the sequence (Q8ZH62 whole entry, looked up) above
# [8] = tested on: FtIspD; type: biochemical, Francisella tularensis
# [9] = tested on: FtIspD; type: biochemical, Francisella tularensis; remark: listed apart in the source
# [10] = tested on: Francisella tularensis subsp. novicida Utah 112; details: read-out: EC50, growth inhibition; cited from earlier work
# [11] = tested on: Yersinia pestis subsp. A1122; details: read-out: EC50, growth inhibition; cited from earlier work
# [12] = tested on: CYP34A; details: direct competitive inhibitor; cited from earlier work
# [13] = target: PI3K; details: competitive inhibitor; cited from earlier work
# [14] = tested on: JNK; details: cited from earlier work
# [15] = target: T2, YpIspC; type: biochemical; remark: listed apart in the source
# [16] = Yersinia pestis, SUBSP.A1122, read-out: EC50, growth inhibition
structure (smiles),measurement,setting,value
"CC(=O)c1c(O)c(C)c(O)c(Cc2c(O)c3c(c(C(=O)C=Cc4ccccc4)c2O)OC(C)(C)C=C3)c1O [Rottlerin, 3′-[(8-Cinnamoyl-5,7-dihydroxy-2,2-dimethyl-2H-1-benzopyran-6-yl)methyl]-2′,4′,6′-trihydroxy-5′-methylacetophenone]",forming aggregates in solution,[1],forming aggregates in solution
same,residual FtIspD activity in the primary screen,[2],52%
same,antibacterial activity in the quaternary screen,[3],significantly inhibit bacterial growth
O=C(Nc1cccc(C(=O)Nc2ccc(S(=O)(=O)O)c3cc(S(=O)(=O)O)cc(S(=O)(=O)O)c23)c1)Nc1cccc(C(=O)Nc2ccc(S(=O)(=O)O)c3cc(S(=O)(=O)O)cc(S(=O)(=O)O)c23)c1 [NF023],antibacterial activity in the quaternary screen,[3],failed to show significant antimicrobial activity
O=C(O)C1=CC(=C(c2ccc(O)c(C(=O)O)c2)c2ccc(O)c(C(=O)O)c2)C=CC1=O [Aurintricarboxylic acid],antibacterial activity in the quaternary screen,[3],failed to show significant antimicrobial activity
O=c1c(O[C@@H]2O[C@H](CO)[C@H](O)[C@H](O)[C@H]2O)c(-c2ccc(O)c(O)c2)oc2cc(O)cc(O)c12 [Quercetin 3-D-Galactoside],% Residual Activity,[4],76.779%
"Cc1cc(N)c2ccccc2[n+]1CCCCCCCCCC[n+]1c(C)cc(N)c2ccccc21.O.[Cl-].[Cl-] [Dequalinium chloride, 1,1′-Decamethylenebis(4-aminoquinaldinium) dichloride hydrate]",hit identification in the primary screen with YpIspC,[4],identified as inhibitors of IspC
same,EC50,[5]; [16],> 100 µM
same,forming aggregates in solution,[1],forming aggregates in solution
same,antibacterial activity in the quaternary screen,[3],significantly inhibit bacterial growth
O=c1c(O[C@@H]2O[C@H](CO)[C@@H](O)[C@H](O)[C@H]2O)c(-c2ccc(O)c(O)c2)oc2cc(O)cc(O)c12 [Quercetin 3-β-D-glucoside],% Residual Activity,[4],76.25%
O.Oc1cc(O)c2c(c1)O[C@H](c1ccc(O)c(O)c1)[C@@H](O)C2 [Catechin],% Residual Activity,[4],96.65%
"CCCc1c(-c2ccc(O)cc2)nn(-c2ccc(O)cc2)c1-c1ccc(O)cc1 [PPT, 1,3,5-tris(4-hydroxyphenyl)-4-propyl-1H-pyrazole]",remaining activity at 100 µM,[6]; read-out: residual activity of EcIspD in the secondary screen,55%
same,hit identification in the primary screen with FtIspD,[2],identified as inhibitors of FtIspD
same,antibacterial activity in the quaternary screen,[3],significantly inhibit bacterial growth
"COc1ccc2c(c[n+](C)c3c4cc5c(cc4ccc23)OCO5)c1OC.[Cl-] [chelerythrine chloride, 1,2-Dimethoxy-N-methyl(1,3) benzodioxolo(5,6-c)phenanthridinium chloride]",hit identification in the primary screen with YpIspC,[4],identified as inhibitors of IspC
same,EC50,[5]; [16],> 100 µM
same,antibacterial activity in the quaternary screen,[3],significantly inhibit bacterial growth
"C[n+]1cc2c3c(ccc2c2ccc4cc5c(cc4c21)OCO5)OCO3 [Sanguinarine chloride, 13-Methyl-[1, 3]benzodioxolo[5,6-c]-1,3-dioxolo[4,5-i] phenanthridinium chloride]",aggregating / non-aggregating inhibitor,[7],aggregating inhibitor
same,dependence of IC50 on enzyme concentration,[7],decreases with a decrease in YpIspC concentration
same,antibacterial activity in the quaternary screen,[3],significantly inhibit bacterial growth
COc1cc(/C=C(\C#N)C(=O)c2ccc(O)c(O)c2)cc(I)c1O [I-OMe-Tyrphostin AG 538],antibacterial activity in the quaternary screen,[3],failed to show significant antimicrobial activity
NC(Cc1cc(O)c(O)cc1O)C(=O)O (racemic) [6-hydroxy-DL-DOPA],mode of inhibition with respect to CTP,[8],competitive
same,mode of inhibition with respect to MEP,[8],noncompetitive
same,attenuation of inhibition in the presence of detergent,[9],did not attenuate inhibition
same,antibacterial activity in the quaternary screen,[3],failed to show significant antimicrobial activity
CC(=O)N(O)CCCP(=O)(O)O [FR900098],EC50,[10],23 µM
same,EC50,[11],29 µM
C[C@@H]1O[C@@H](Oc2c(-c3ccc(O)c(O)c3)oc3cc(O)cc(O)c3c2=O)[C@H](O)[C@H](O)[C@H]1O [Quercitrin],remaining activity at 100 µM,[4],78.2%
"O=C1Nc2ccc(I)cc2C1=Cc1cc(Br)c(O)c(Br)c1 [GW5074, 3-(3,5-Dibromo-4-hydroxybenzylidine-5-iodo-1,3-dihydro-indol-2-one)]",residual activity of EcIspD in the secondary screen,"[6]; secondary screen, 100 μM",47%
same,hit identification in the primary screen with FtIspD,[2],identified as inhibitors of FtIspD
same,antibacterial activity in the quaternary screen,[3],significantly inhibit bacterial growth
O=c1c(O)c(-c2ccc(O)c(O)c2)oc2cc(O)cc(O)c12 [Quercetin],remaining activity at 100 µM,[4],4.83%
same,inhibition at 100 µM,[4]; read-out: inhibition of the catalytic activity of YpIspC,> 95%
same,Ki,[12],15.4 µM
same,Kd,[13],0.28 µM
same,EC50,[5]; [16],< 50 µM
same,EC50,"[5]; read-out: EC50, growth inhibition",29 µM
same,IC50,[14],1 µM
same,forming aggregates in solution,[1],forming aggregates in solution
same,"FtIspD activity, % of the uninhibited control",[2],4%
same,residual growth,[3],less than 25%
same,EC50,[3]; Francisella tularensis,< 50 µM
same,EC50,[3],36 µM
Cc1ccc(C(=O)Nc2ccc(S(=O)(=O)O)c3cc(S(=O)(=O)O)cc(S(=O)(=O)O)c23)cc1NC(=O)c1cccc(NC(=O)Nc2cccc(C(=O)Nc3cc(C(=O)Nc4ccc(S(=O)(=O)O)c5cc(S(=O)(=O)O)cc(S(=O)(=O)O)c45)ccc3C)c2)c1 [Suramin Hexasodium],aggregating / non-aggregating inhibitor,[7],non-aggregating
same,attenuation of inhibition in the presence of detergent,[15],did not attenuate inhibition
same,antibacterial activity in the quaternary screen,[3],failed to show significant antimicrobial activity
C[C@]12C=CC(=O)C=C1CC[C@@H]1C2=CC[C@]2(C)[C@@H](C(=O)CN3CCN(c4cc(N5CCCC5)nc(N5CCCC5)n4)CC3)CC[C@@H]12.O=C(O)/C=C\C(=O)O [U-74389G maleate],antibacterial activity in the quaternary screen,[3],failed to show significant antimicrobial activity
